Test results: article PMC8629924 (Nature chemistry, 2021)

Target: T1, MaNifB (Methanosarcina acetivorans, UniProt Q8TIF7)
T1 sequence (Q8TIF7 1-323): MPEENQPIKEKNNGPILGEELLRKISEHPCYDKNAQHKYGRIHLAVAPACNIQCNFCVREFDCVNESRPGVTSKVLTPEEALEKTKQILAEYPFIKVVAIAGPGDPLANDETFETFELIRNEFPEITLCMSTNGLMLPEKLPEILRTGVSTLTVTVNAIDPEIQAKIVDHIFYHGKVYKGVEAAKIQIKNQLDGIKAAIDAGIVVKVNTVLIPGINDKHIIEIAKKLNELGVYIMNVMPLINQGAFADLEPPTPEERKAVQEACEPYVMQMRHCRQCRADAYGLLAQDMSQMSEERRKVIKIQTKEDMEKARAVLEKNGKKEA
Conditions: K-cluster-loaded MaNifB; dithionite-reduced or IDS-oxidized

## C[S+](CC[C@H](N)C(=O)O)C[C@H]1O[C@@H](n2cnc3c(N)ncnc32)[C@H](O)[C@@H]1O (stereo partly shown) [SAM]
  CW EPR and 3-pulse ESEEM of K- to L*-cluster conversion: SAM-treated MaNifB (designated MaNifB-L*) displayed a distinct change in the line-shape
